Results as given in the supplement of paper PMC11628255, “Interference of metal ions on the bioluminescent signal of firefly, Renilla, and NanoLuc luciferases in high-throughput screening assays” (Frontiers in Chemistry, 2024).

Legend:
Test in all cases: normalised percent inhibition of luminescence (vs positive and negative controls); higher = stronger inhibition
[1] = system: firefly luciferase (FLuc)
Method: (§1)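 Concentration-response (>=11 concentrations) of metal salts on purified FLuc, NLuc or RLuc luminescence in screening (SC) or 100 mM HEPES (H) buffer; salt pre-incubated with enzyme 10 min at RT, read 10 min after substrate. Normalised percent inhibition vs plate positive (PTC-124, isradipine, BTS) and DMSO negative controls; triplicate wells.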

[2] = system: Renilla luciferase (RLuc)
Method: as §1

[3] = system: NanoLuc luciferase (NLuc)
Method: as §1

[Cl][Fe]([Cl])[Cl] [iron(III) chloride]
normalised percent inhibition [%]
Conditions | [1] | [2] | [3]
metal salt concentration 0.0001 mM, 100 mM HEPES buffer | -26 | -21.7 | -1.25
metal salt concentration 0.00025 mM, 100 mM HEPES buffer | -29.2 | -24.6 | -4.27
metal salt concentration 0.0005 mM, 100 mM HEPES buffer | -34.9 | -24.2 | -1.65
metal salt concentration 0.001 mM, 100 mM HEPES buffer | -41.7 | -15.5 | -0.138
metal salt concentration 0.002 mM, screening conditions buffer | 14.7 | 0.819 | 0.19
metal salt concentration 0.005 mM, screening conditions buffer | 55.7 | -4.9 | 4.14
metal salt concentration 0.01 mM, screening conditions buffer | 85.4 | -11.6 | 8.93
metal salt concentration 0.02 mM, screening conditions buffer | 95.8 | 0.263 | 14.5
metal salt concentration 0.025 mM, 100 mM HEPES buffer | 99.41 | -1.73 | 5.06
metal salt concentration 0.05 mM, 100 mM HEPES buffer | 99.62 | 36.7 | 15
metal salt concentration 0.05 mM, screening conditions buffer | 82.4 | -5.21 | -3.71
metal salt concentration 0.1 mM, 100 mM HEPES buffer | 100.6 | 61.1 | 35.6
metal salt concentration 0.1 mM, screening conditions buffer | 71.9 | 23.9 | 28.5
metal salt concentration 0.2 mM, screening conditions buffer | 95.4 | 32.6 | 31.9
metal salt concentration 0.5 mM, 100 mM HEPES buffer | 100.3 | 103 | 99.75
metal salt concentration 0.5 mM, screening conditions buffer | 100.2 | 48.5 | 52.9
metal salt concentration 1 mM, 100 mM HEPES buffer | 99.6 | 103 | 101.4
metal salt concentration 1 mM, screening conditions buffer | 100.6 | 75.5 | 89.6
metal salt concentration 2.5 mM, 100 mM HEPES buffer | 100.2 | 105.7 | 101.8
metal salt concentration 2.5 mM, screening conditions buffer | 100.6 | 94.4 | 137.4
metal salt concentration 5 mM, 100 mM HEPES buffer | 99.84 | 106.2 | 102.12
metal salt concentration 5 mM, screening conditions buffer | 100.5 | 105 | 137.49

O=[N+]([O-])[O-].O=[N+]([O-])[O-].[Pb+2] [lead(II) nitrate]
normalised percent inhibition [%]
Conditions | [1] | [2] | [3]
metal salt concentration 0.0001 mM, 100 mM HEPES buffer | -33.9 | – | –
metal salt concentration 0.00025 mM, 100 mM HEPES buffer | -19.7 | – | –
metal salt concentration 0.0005 mM, 100 mM HEPES buffer | -15.9 | – | –
metal salt concentration 0.001 mM, 100 mM HEPES buffer | -1.03 | – | –
metal salt concentration 0.002 mM, screening conditions buffer | – | -20.9 | -1.02
metal salt concentration 0.005 mM, screening conditions buffer | – | -16.2 | -3.52
metal salt concentration 0.01 mM, screening conditions buffer | – | -2.6 | -2.27
metal salt concentration 0.02 mM, screening conditions buffer | – | -5.61 | -3.22
metal salt concentration 0.025 mM, 100 mM HEPES buffer | 88.9 | – | –
metal salt concentration 0.05 mM, 100 mM HEPES buffer | 94.75 | – | –
metal salt concentration 0.05 mM, screening conditions buffer | – | -11.8 | -4.15
metal salt concentration 0.1 mM, 100 mM HEPES buffer | 96.7 | – | –
metal salt concentration 0.1 mM, screening conditions buffer | – | -5.46 | -7.45
metal salt concentration 0.2 mM, screening conditions buffer | – | -6.41 | 0.428
metal salt concentration 0.5 mM, 100 mM HEPES buffer | 100.1 | – | –
metal salt concentration 0.5 mM, screening conditions buffer | – | -3.99 | 15.7
metal salt concentration 1 mM, 100 mM HEPES buffer | 100.4 | – | –
metal salt concentration 1 mM, screening conditions buffer | – | 2.9 | 11.5
metal salt concentration 2.5 mM, 100 mM HEPES buffer | 100.5 | – | –
metal salt concentration 2.5 mM, screening conditions buffer | – | 53.3 | 52
metal salt concentration 5 mM, 100 mM HEPES buffer | 99.63 | – | –
metal salt concentration 5 mM, screening conditions buffer | – | 94.9 | 129

O.O.O.O.O.O.O.O=S(=O)([O-])[O-].[Mg+2] [magnesium sulfate]
normalised percent inhibition [%], 100 mM HEPES buffer
Conditions | [1] | [2] | [3]
metal salt concentration 0.0001 mM | -19.2 | -6.9 | 6.62
metal salt concentration 0.00025 mM | -27.4 | -4.68 | 1.39
metal salt concentration 0.0005 mM | -11 | -11.6 | -0.0243
metal salt concentration 0.001 mM | -24 | -17 | -0.202
metal salt concentration 0.025 mM | -31.5 | -30.1 | -2.3
metal salt concentration 0.05 mM | -6.49 | -11.6 | 0.502
metal salt concentration 0.1 mM | -20 | -22.7 | 1.8
metal salt concentration 0.5 mM | -19.2 | -0.986 | 1.22
metal salt concentration 1 mM | -17.2 | -23.4 | -4.91
metal salt concentration 2.5 mM | -12.5 | -40.4 | -6.56
metal salt concentration 5 mM | 4.85 | -22.4 | -5.03

[Cl][Pt-2]([Cl])([Cl])[Cl].[K+].[K+] [potassium tetrachloroplatinate(II)]
normalised percent inhibition [%]
Conditions | [1] | [2] | [3]
metal salt concentration 0.0001 mM, 100 mM HEPES buffer | -10.3 | 6.41 | 1.21
metal salt concentration 0.00025 mM, 100 mM HEPES buffer | 4.97 | 4.68 | -0.51
metal salt concentration 0.0005 mM, 100 mM HEPES buffer | 6.27 | -6.41 | 2.19
metal salt concentration 0.001 mM, 100 mM HEPES buffer | 12.9 | -11.3 | 0.76
metal salt concentration 0.002 mM, screening conditions buffer | 23.2 | 13.4 | 6.88
metal salt concentration 0.005 mM, screening conditions buffer | 28.2 | 5.74 | 2.83
metal salt concentration 0.01 mM, screening conditions buffer | 32.2 | 8.68 | 1.24
metal salt concentration 0.02 mM, screening conditions buffer | 39.4 | 2.57 | 5.06
metal salt concentration 0.025 mM, 100 mM HEPES buffer | 39.2 | 8.38 | 4.56
metal salt concentration 0.05 mM, 100 mM HEPES buffer | 56.4 | -3.94 | 10.3
metal salt concentration 0.05 mM, screening conditions buffer | 68.7 | 19.4 | 18.1
metal salt concentration 0.1 mM, 100 mM HEPES buffer | 79.8 | 5.67 | 15.1
metal salt concentration 0.1 mM, screening conditions buffer | 86 | 27.8 | 41.9
metal salt concentration 0.2 mM, screening conditions buffer | 98.8 | 41.3 | 60.3
metal salt concentration 0.5 mM, 100 mM HEPES buffer | 100.5 | 40.7 | 76.6
metal salt concentration 0.5 mM, screening conditions buffer | 100.5 | 66.7 | 91.6
metal salt concentration 1 mM, 100 mM HEPES buffer | 100.2 | 69.3 | 87.7
metal salt concentration 1 mM, screening conditions buffer | 99.57 | 95.3 | 116
metal salt concentration 2.5 mM, 100 mM HEPES buffer | 100.4 | 97.4 | 93.7
metal salt concentration 2.5 mM, screening conditions buffer | 100.7 | 105.3 | 129.7
metal salt concentration 5 mM, 100 mM HEPES buffer | 100.4 | 106 | 96.98
metal salt concentration 5 mM, screening conditions buffer | 100.8 | 106.2 | 134.6
